The source of these data is patent publication US11192932B2, “Heparin-binding domain of IGFBP-2 in the treatment of metabolic disorders” (Amolyt Pharma, priority 2018, dated 2021).

The subject of one experiment is 3T3-LI adipocytes. As to the kind of experiment: [3H]-2-deoxyglucose uptake by fully differentiated 3T3-LI adipocytes. Type of experiment: cell-based, mouse. The settings on record: 3 μg/ml for 24 hours. The protocol:
The cells were exposed to the test compounds at a concentration of 3 μg/ml for 24 hours before testing for [^3H]-2-deoxyglucose uptake.
3T3-LI cells are a mouse fibroblast cell line which when cultured under specific conditions, differentiate into adipocytes.
Differentiation of 3T3-LI cells into adipocytes was achieved using the following protocol. 3T3-L1 cells were seeded in 24-well plates and cultured in 3T3-L1 maintenance medium (DMEM containing 10% fetal bovine serum, 4 mM L-glutamine 1 mM, sodium pyruvate) until the cells were 100% confluent. The cells were then fed with 3T3-L1 maintenance medium and cultured for a further 48 h. To initiate differentiation into adipocytes, the medium was changed to Differentiation medium 1 (DMEM containing 10% fetal bovine serum, 4 mM L-glutamine, 1 mM sodium pyruvate, 0.5 mM IBMX, […]), and cultured for a further 2 days. The medium was then changed to Differentiation medium 2 (DMEM containing 10% fetal bovine serum, 4 mM L-glutamine, 1 mM sodium pyruvate, 1 mg/ml insulin), and cultured for a further 2 days. The medium was then changed to Adipocyte Maintenance medium (DMEM containing 10% fetal bovine serum, 4 mM L-glutamine, 1 mM sodium pyruvate), and cultured for a further 7 days. During this time, the medium was changed every other day. The now fully differentiated adipocytes were utilized for glucose uptake experiments (day 11 from initiation of differentiation). Stock solutions of the HBD1 peptides to be tested were prepared by dilution with 0.9% NaCl solution under sterile conditions in a laminar flow cabinet to a concentration of 1 mg/ml, based on net peptide content. The solutions were homogenized by gentle inversion. Test items were prepared from the stock solutions, and remaining stock solution was aliquoted and stored at −20° C. and used without repeated freeze-thaw cycles.
Glucose uptake experiments were carried our using the following protocol. Prior to beginning the experiment, 100 ml of Krebs Ringer bicarbonate buffer (KRBB)(25 mM Hepes pH 7.4, 118 mM NaCl, 5 mM NaHCO3, 4.7 mM KCl, 1.2 mM KH2PO4, 1.2 mM MgSO4, 2.5 mM CaCl2, 0.2% BSA—Filtered using a 0.2 μm filter) and 100 ml of Incubation medium (DMEM containing 4 mM L-glutamine, 1 mM sodium pyruvate, 1% penicillin streptomycin, 0.2% BSA—Filtered using a 0.2 μm filter) were pre-warmed to 37° C., and 500 ml of KRBB was chilled on ice. Stock solutions of test compounds were diluted to 3 μg/ml final concentrations in pre-warmed Incubation medium and in pre-warmed KRBB. Insulin (positive control), previously diluted 1:1000 in sterile 0.9% NaCl, was further diluted in 10 ml of both medium and buffer to a final concentration of 1 nM. All traces of the medium were carefully removed from the cells using a fine tip. […]

Experiment [1] concerns C2C12 mouse skeletal muscle myotubes. Put plainly: 3H-2-deoxyglucose uptake by fully differentiated C2C12 myotubes. Conditions: C2C12 myotubes, SEQ ID NO: 73 alone or together with insulin (FIG. 8). In kind it is cell-based. The protocol:
In particular: HBD1 SEQ ID NO: 73 (C18:0-HLGLEEPKK) at 0.8 μM, 1.5 μM, and 2.3 μM; or 1.5 μM SEQ ID NO: 73 (C18:0-HLGLEEPKK) for 2, 4, and 16 hours prior to testing glucose uptake.
The studies were performed using cultured, fully differentiated C2C12 mouse skeletal muscle myotubes. The cells were prepared by growing C2C12 cells to confluent density in DMEM with 25 mM glucose and 10% fetal bovine serum in 24 well plates. At this time, the medium was changed to differentiation medium (DMEM with 25 mM glucose and 2% horse serum) for 6 days with medium changed every third day. The various treatments were diluted in serum-free medium and, after washing the cells with serum-free medium, were added to the cells and incubated for 2 hours or alternative times, depending on the treatment. At the end of incubation period, the media was removed and 1.0 ml of glucose-free Krebs ringer bicarbonate buffer (pH 7.4), containing the same treatments, was added and incubation continued for 10 minutes. At the end of the 10 min incubation period, ^3H-2-deoxyglucose ([…]) (specific activity=8 Ci/mmole) was added directly to all wells, and the incubation continued for an additional […]. The wells were then rinsed three times with ice cold phosphate buffered saline, the cells were extracted with 0.5 N NaOH, and the ^3H-2-deoxyglucose content of the cell lysate quantitated by scintillation counting.

A further experiment relates to AMPK. Put plainly: AMPK phosphorylation (immunoblot anti-pAMPK T172) in C2C12 myotubes. Type of experiment: cell-based, mouse. Conditions: C2C12 myotubes treated with SEQ ID NO: 73 (FIG. 7). The protocol:
In particular: HBD1 SEQ ID NO: 73 (C18:0-HLGLEEPKK). The AMPK pathway is both insulin and IGF1 independent, but acts ultimately to induce GLUT4 translocation to the cell membrane to facilitate the uptake and metabolism of glucose.
For signaling studies the cells were prepared the same way except 6-well plates were used. After 6 days incubation in differentiating medium, the cells were washed with serum-free medium. The various treatments were then added in serum free medium containing 0.1% BSA. HBD1 peptides were added and incubated for 8 hours. When utilizing IGF-I, incubation was for 15 minutes after IGF-1 addition. Following incubation the cells were lysed in RIPA buffer and sonicated. The cell lysate was centrifuged and the supernatant analyzed for either Akt or AMPK by SDS PAGE using a 10% gel followed by immunoblotting with the appropriate antibody.
To examine further the intracellular transduction pathways utilized by the HBD1 peptides, following treatment with HBD1 peptide SEQ ID NO: 73 (C18:0-HLGLEEPKK), cell lysate proteins, were separated by SDS PAGE and immunoblotted with anti-pAMPK T172.

A further experiment has as its system mice. The settings on record: publication Xi, 2013; cited from earlier work.

Entries after “also recorded” stand apart in the source; their conditions may differ.

HLGLEEPKK [SEQ ID NO: 10]: in the experiment with 3T3-LI adipocytes, the “glucose uptake by 3T3-LI adipocytes” value is given as “stimulated increased glucose uptake”.

On to `c1cc(-c2cnn3cc(-c4ccc(OCCN5CCCCC5)cc4)cnc23)ccn1` [Compound C, reference compound], for which, in experiment [1], the “effect of blocker on SEQ ID NO: 73-stimulated glucose uptake” value is recorded as “completely abolished; also recorded: prevented”. In addition, in the experiment on AMPK, the “effect of blocker on SEQ ID NO: 73-induced AMPK phosphorylation” value is recorded as “completely abolished; also recorded: prevented”.

As for HHLGLEEPKK [SEQ ID NO: 16], in the experiment on 3T3-LI adipocytes, the “glucose uptake by 3T3-LI adipocytes” value is given as “stimulated increased glucose uptake”.

With KHHLGLEEPKKLR [SEQ ID NO: 1], in the experiment with mice, the “body weight and fat accumulation” value was “decrease body weight and fat accumulation”; the glucose tolerance entry is “no effect”. Also, the “glucose uptake by 3T3-LI adipocytes” value in the experiment with 3T3-LI adipocytes is listed as “stimulated increased glucose uptake”.
